The values that follow come from PubChem BioAssay AID1259407 (Chemical Carcinogenesis Research Information System (CCRIS), 2018).

Each structure is given as a SMILES string. The source made the active and inactive calls. The rule behind the calls is not given here.

The test system of the data set is CCRIS mutagenicity, Ames/micronucleus/aberration tests. The data set can be described thus: CCRIS mutagenicity studies.
Where [1] appears, read: Test System: AMES SALMONELLA TYPHIMURIUM, Strain/Indicator: TA98, Metabolic Activation: NONE, Method: PREINCUBATION
[2] abbreviates: Test System: AMES SALMONELLA TYPHIMURIUM, Strain/Indicator: TA100, Metabolic Activation: NONE, Method: PREINCUBATION
[3] abbreviates: Test System: AMES SALMONELLA TYPHIMURIUM, Strain/Indicator: TA100, Metabolic Activation: RAT, LIVER, S-9, Method: PREINCUBATION
Where [4] appears, read: Test System: UDS RODENT HEPATOCYTES, Strain/Indicator: THY INCORP (NON-S-PHASE), Metabolic Activation: NONE, Method: AUTORADIOGRAPHY
The mark [5] stands for this setting: Test System: AMES SALMONELLA TYPHIMURIUM, Strain/Indicator: TA98, Metabolic Activation: NONE, Method: STANDARD PLATE.
The mark [6] stands for this setting: Test System: AMES SALMONELLA TYPHIMURIUM, Strain/Indicator: TA100, Metabolic Activation: NONE, Method: STANDARD PLATE.
The mark [7] stands for this setting: Test System: AMES SALMONELLA TYPHIMURIUM, Strain/Indicator: TA100, Metabolic Activation: RAT, LIVER, S-9, AROCLOR 1254, Method: STANDARD PLATE.

`O=C(O)C(F)(F)C(F)(Cl)C(F)(F)C(F)(Cl)C(F)(F)Cl` (stereo not drawn): the mutagenic call runs as follows: under setting [1], “inactive; negative”; (Test System: AMES SALMONELLA TYPHIMURIUM, Strain/Indicator: TA98, Metabolic Activation: RAT, LIVER, S-9, Method: PREINCUBATION) “inactive; negative”; under setting [2], “inactive; negative”; under setting [3], “inactive; negative”; (Test System: AMES SALMONELLA TYPHIMURIUM, Strain/Indicator: TA1535, Metabolic Activation: NONE, Method: PREINCUBATION) “inactive; negative”; (Test System: AMES SALMONELLA TYPHIMURIUM, Strain/Indicator: TA1535, Metabolic Activation: RAT, LIVER, S-9, Method: PREINCUBATION) “inactive; negative”. For the same compound, the mutagenic call (Test System: AMES SALMONELLA TYPHIMURIUM, Strain/Indicator: TA1537, Metabolic Activation: NONE, Method: PREINCUBATION) is “inactive; negative”; the mutagenic call (Test System: AMES SALMONELLA TYPHIMURIUM, Strain/Indicator: TA1537, Metabolic Activation: RAT, LIVER, S-9, Method: PREINCUBATION) is “inactive; negative”; the mutagenic call (Test System: AMES SALMONELLA TYPHIMURIUM, Strain/Indicator: TA1538, Metabolic Activation: NONE, Method: PREINCUBATION) is “inactive; negative”; the mutagenic call (Test System: AMES SALMONELLA TYPHIMURIUM, Strain/Indicator: TA1538, Metabolic Activation: RAT, LIVER, S-9, Method: PREINCUBATION) was “inactive; negative”; the mutagenic call (Test System: CHINESE HAMSTER OVARY, Strain/Indicator: CHO-K1-BH4 (HGPRT), Metabolic Activation: NONE, Method: STANDARD PLATE) was “inactive; negative”; the mutagenic call (Test System: CHINESE HAMSTER OVARY, Strain/Indicator: CHO-K1-BH4 (HGPRT), Metabolic Activation: RAT, LIVER, S-9, Method: STANDARD PLATE) is “inactive; negative”. The mutagenic call under setting [4] is “inactive; negative”.
Turning to `CC(=O)c1ccco1`, the mutagenic call is, setting by setting: under setting [5], “inactive; negative”; (Test System: AMES SALMONELLA TYPHIMURIUM, Strain/Indicator: TA98, Metabolic Activation: S-9, Method: STANDARD PLATE) “active; positive”; under setting [6], “inactive; negative”; (Test System: AMES SALMONELLA TYPHIMURIUM, Strain/Indicator: TA100, Metabolic Activation: S-9, Method: STANDARD PLATE) “inactive; negative”.
As for `O=c1c(=O)c2cccc3ccc4cccc1c4c32`, the mutagenic call runs as follows: under setting [1], “inactive; negative”; (Test System: AMES SALMONELLA TYPHIMURIUM, Strain/Indicator: TA98, Metabolic Activation: RAT, LIVER, S-9, AROCLOR 1254, Method: PREINCUBATION) “inactive; negative”; under setting [2], “inactive; negative”; (Test System: AMES SALMONELLA TYPHIMURIUM, Strain/Indicator: TA100, Metabolic Activation: RAT, LIVER, S-9, AROCLOR 1254, Method: PREINCUBATION) “inactive; negative”.
For `COc1cc(COC(=O)CCCCCCC(C)C)ccc1O`, the mutagenic call by setting is: (End Point: In vivo micronucleus, Test System: Bone marrow polychromatic erythrocytes, Species: Mouse, Strain/Sex: BDF1/male, Route: Oral) “inactive; negative”; (Test System: Ames Salmonella typhimurium, Strain/Indicator: TA98, Metabolic Activation: None, Method: Preincubation) “inactive; negative”; (Test System: Ames Salmonella typhimurium, Strain/Indicator: TA98, Metabolic Activation: Rat, Liver, S-9, Phenobarbital and 5,6-benzoflavone, Method: Preincubation) “inactive; negative”; (Test System: Ames Salmonella typhimurium, Strain/Indicator: TA100, Metabolic Activation: Rat, Liver, S-9, Phenobarbital and 5,6-benzoflavone, Method: Preincubation) “inactive; negative”; (Test System: Ames Salmonella typhimurium, Strain/Indicator: TA1535, Metabolic Activation: None, Method: Preincubation) “inactive; negative”; (Test System: Ames Salmonella typhimurium, Strain/Indicator: TA1535, Metabolic Activation: Rat, Liver, S-9, Phenobarbital and 5,6-benzoflavone, Method: Preincubation) “inactive; negative”. Besides, the mutagenic call was “inactive; negative” (Test System: Ames Salmonella typhimurium, Strain/Indicator: TA1537, Metabolic Activation: Rat, Liver, S-9, Phenobarbital and 5,6-benzoflavone, Method: Preincubation); “inactive; negative” (Test System: E. coli, Strain/Indicator: WP2 uvrA, Metabolic Activation: None, Method: Preincubation); “inactive; negative” (Test System: E. coli, Strain/Indicator: WP2 uvrA, Metabolic Activation: Rat, Liver, S-9, Phenobarbital and 5,6-benzoflavone, Method: Preincubation).
On to `Nc1ccc(Oc2ccccc2)cc1`, for which the mutagenic call under setting [1] was “inactive; negative”; the mutagenic call (Test System: AMES SALMONELLA TYPHIMURIUM, Strain/Indicator: TA98, Metabolic Activation: RAT, BLADDER, S-9, PCB, Method: FLUCTUATION TEST) was “active; positive”; the mutagenic call (Test System: AMES SALMONELLA TYPHIMURIUM, Strain/Indicator: TA98, Metabolic Activation: RAT, LIVER, S-9, PCB, Method: PREINCUBATION) was “active; positive”; the mutagenic call (Test System: AMES SALMONELLA TYPHIMURIUM, Strain/Indicator: TA100, Metabolic Activation: GUINEA PIG, LIVER, S-9, KANECLOR 500, Method: STANDARD PLATE) was “active; positive”; the mutagenic call under setting [2] was “inactive; negative”; the mutagenic call (Test System: AMES SALMONELLA TYPHIMURIUM, Strain/Indicator: TA100, Metabolic Activation: RAT, BLADDER, S-9, PCB, Method: FLUCTUATION TEST) was “active; positive”. The mutagenic call (Test System: AMES SALMONELLA TYPHIMURIUM, Strain/Indicator: TA100, Metabolic Activation: RAT, LIVER, S-9, PCB, Method: PREINCUBATION) was “active; positive”.
On to `NC(Cc1ccc(O)cc1)C(=O)O` (stereo not drawn), for which the mutagenic call reads like this: under setting [5], “inactive; negative”; (Test System: AMES SALMONELLA TYPHIMURIUM, Strain/Indicator: TA98, Metabolic Activation: RAT, LIVER, S-9, AROCLOR 1254, Method: STANDARD PLATE) “inactive; negative”; under setting [6], “inactive; negative”; under setting [7], “inactive; negative”.
As for `CCC[CH2][Sn]([CH2]CCC)([CH2]CCC)[CH2]CCC`, the mutagenic call is “inactive; negative” (Test System: AMES SALMONELLA TYPHIMURIUM, Strain/Indicator: TA98, Metabolic Activation: NONE, Method: SUSPENSION/PLATE) and “inactive; negative” (Test System: AMES SALMONELLA TYPHIMURIUM, Strain/Indicator: TA100, Metabolic Activation: NONE, Method: SUSPENSION/PLATE).
As to `Cc1ccc2ccccc2n1`, the mutagenic call runs as follows: under setting [7], “active; positive”; (Test System: AMES SALMONELLA TYPHIMURIUM, Strain/Indicator: TA100, Metabolic Activation: RAT, LIVER, S-9, PHENOBARBITAL AND 5,6-BENZOFLAVONE, Method: PREINCUBATION) “active; positive”; (Test System: AMES SALMONELLA TYPHIMURIUM, Strain/Indicator: TA100, Metabolic Activation: RAT, LIVER, S-9, PHENOBARBITAL AND 5,6-NAPHTHOFLAVONE, Method: PREINCUBATION) “active; positive”; under setting [3], “inactive; negative”; under setting [4], “inactive; negative”.
